Data from US20110244497A1, “METHOD FOR JUDGING SUSCEPTIBILITY OF CANCER CELLS TO ANTHRACYCLINE ANTICANCER AGENT AND COMPUTER PROGRAM” (SYSMEX CORPORATION, priority 2010, published 2011).

Tested on: 29 types of breast cancer cell lines
Test: Measurement of IC50 of doxorubicin, Celltiter Glo Luminescent Cell Viability Assay
Format: cell-based
Conditions: median over 29 human breast cancer cell lines; doxorubicin 0-2000 nM; growth measured 72 hours after culture-medium exchange; used as threshold sensitive/nonsensitive
Procedure: 29 types of breast cancer cell lines shown in Reference example 1 were inoculated into wells on two sheets of microplates at 5000 cells/100 uL/well using culture media containing doxorubicin at 0 nM, 250 nM, 500 nM, 750 nM, 1000 nM, and 2000 nM concentrations, followed by culturing for 24 hours.
Culture media containing doxorubicin at respective concentrations were prepared and the culture medium exchange was performed. Immediately after the culture-medium exchange, the growth of the cells on one of the microplates was measured using Celltiter Glo Luminescent Cell Viavility Assay (Cat#G7571: manufactured by Promega KK.). The remaining microplate was cultured under the culture conditions shown in Reference example 1 for 72 hours after the culture-medium exchange. Thereafter, the growth of the cells was measured using Celltiter Glo Luminescent Cell Viavility Assay (Cat#G7571: manufactured by Promega KK.).
On the basis of the number of the living cells measured, the concentration (IC50) of doxorubicin (the number of […]×100=50) was determined.

IC50: 392 nM
SMILES: COc1cccc2c1C(=O)c1c(O)c3c(c(O)c1C2=O)C[C@@](O)(C(=O)CO)C[C@@H]3O[C@H]1C[C@H](N)[C@H](O)[C@H](C)O1 [doxorubicin]
